# Patent US6841567B1, “Cyclic substituted fused pyrrolocarbazoles and isoindolones” (Cephalon, Inc., priority 1999, dated 2005)
# Key:
# [1] = target: T1, PDGFβ receptor kinase domain (recombinant human PDGFRβ) (Homo sapiens, UniProt P09619); assay: Inhibition of platelet derived growth factor receptor kinase activity (ELISA); type: biochemical; conditions: for inhibition at 0.3 µM: read-out: PDGFRβ % inh @ 300 nM (values in parentheses)
# T1 construct: kinase activity of baculovirus-expressed PDGFβ receptor kinase domain; made in house; host or cells: baculovirus expression system
# Protocol: Cyclic substituted fused pyrrolocarbazole and isoindolone compounds were examined for their inhibitory effects on the kinase activity of baculovirus-expressed PDGFβ receptor kinase domain using the trkA kinase ELISA described above. Assays were performed in substrate (PLC-γ/GST)-coated 96-well microtiter plates. Each 100-μl reaction mixture contained 50 mM HEPES, pH 7.4, 20 μM ATP, 10 mM MnCl2, 0.1% BSA, 2% DMSO, and various concentrations of inhibitor. The reaction was initiated by addition of prephosphorylated recombinant human enzyme (10 ng/ml PDGFRβ) and allowed to proceed for 15 minutes at 37° C. The prephosphorylated enzyme was prepared prior to use by incubation of the kinase in buffer containing 20 μM ATP and 10 mM MnCl2 for 1 hour at 4° C. Detection of phosphorylated product was done by adding horseradish peroxidase (HRP)-conjugated antII-phosphotyrosine antibody (UBI). The HRP substrate solution containing 3,3′-5,5′-tetramethylbenzidine and hydrogen peroxide was later added and the plates were incubated for 10 minutes at room temperature. The reaction was quenched with acid and the resulting absorbance was read at 450 nm using a Microplate Bio-kinetics Reader (Bio-Tek Instrument EL 312e). Inhibition data were analyzed using the sigmoidal dose-response (variable slope) equation in GraphPad Prism.
# [2] = target: T2, VEGF receptor (human flk-1, KDR, VEGFR2) kinase domain (Homo sapiens, UniProt P35968); assay: Inhibition of vascular endothelial growth factor receptor kinase activity (ELISA); type: biochemical; conditions: for inhibition at 0.3 µM: read-out: VEGF receptor kinase activity % Inh. @ 300 nM (values in parentheses)
# T2 construct: VEGF receptor (human flk-1, KDR, VEGFR2) kinase domain; made in house; host or cells: baculovirus expression system
# Protocol: Cyclic substituted fused pyrrolocarbazole and isoindolone compounds were examined for their inhibitory effects on the kinase activity of baculovirus-expressed VEGF receptor (human flk-1, KDR, VEGFR2) kinase domain using the procedure described for the trkA kinase ELISA assay described above. The kinase reaction mixture, consisting of 50 mM Hepes, pH 7.4, 40 μM ATP, 10 mM MnCl2, 0.1% BSA, 2% DMSO, and various concentrations of inhibitor, was transferred to PLC-γ/GST-coated plates. VEGFR kinase was added and the reaction was allowed to proceed for 15 min. at 37 C. Detection of phosphorylated product was accomplished by addition of antII-phosphotyrosine antibody (UBI). A secondary enzymeconjugated antibody was delivered to capture the antibody-phosphorylated PLC-γ/GST complex. The activity of the bound enzyme was measured via an amplified detection system (Gibco-BRL). Inhibition data were analyzed using the sigmoidal dose-response (variable slope) equation in GraphPad Prism.
# [3] = target: T3, baculovirus-expressed human trkA cytoplasmic domain (Homo sapiens, UniProt P04629); assay: Inhibition of trkA tyrosine kinase activity (ELISA-based assay); type: biochemical; conditions: for IC50: 40 μM ATP; for trkA kinase activity % Inh. @ 300 nM (values in parentheses): 300 nM compound
# T3 construct: baculovirus-expressed human trkA cytoplasmic domain; made in house; host or cells: baculovirus expression system
# Protocol: Selected cyclic substituted fused pyrrolocarbazole and isoindolone compounds were tested for their ability to inhibit the kinase activity of baculovirus-expressed human trkA cytoplasmic domain using an ELISA-based assay as previously described (Angeles et al., Anal. Biochem. 236: 49-55, 1996). Briefly, the 96-well microtiter plate was coated with substrate solution (recombinant human phospholipase C-γ1/glutathione S-transferase fusion protein (Rotin et al., EMBO J., 11: 559-567, 1992). Inhibition studies were performed in 100 μl assay mixtures containing 50 mM Hepes, pH 7.4, 40 μM ATP, 10 mM MnCl2, 0.1% BSA, 2% DMSO, and various concentrations of inhibitor. The reaction was initiated by addition of trkA kinase and allowed to proceed for 15 minutes at 37° C. An antibody to phosphotyrosine (UBI) was then added, followed by a secondary enzyme-conjugated antibody, alkaline phosphatase-labelled goat antII-mouse IgG (Bio-Rad). The activity of the bound enzyme was measured via an amplified detection system (Gibco-BRL). Inhibition data were analyzed using the sigimoidal dose-response (variable slope) equation in GraphPad Prism.
# [4] = target: protein kinase C (UBI; mixed isozymes of a, b, g); assay: Inhibition of protein kinase C activity (Millipore Multiscreen TCA in-plate assay); type: biochemical
# Protocol: Protein kinase C activity was assessed using the Millipore Multiscreen TCA “in-plate” assay as described in Pitt, A. M. and Lee, C. (J. Biomol. Screening, 1: 47-51, 1996). Assays were performed in 96-well Multiscreen-DP plates (Millipore). Each […] assay mixture contained 20 mM Hepes, pH 7.4, 10 mM MgCl2, 2.5 mM EGTA, 2.5 mM CaCl2, […] phosphatidyl serine, […] diolein, […] histone H-1 (Fluka), […] [γ-^32P]ATP, 1.5 ng protein kinase C (UBI; mixed isozymes of a, b, g), 0.1% BSA, 2% DMSO, and test cyclic substituted fused pyrrolocarbazole compound. The reaction was allowed to proceed for 10 min at 37° C., then quenched by adding ice cold 50% trichloroacetic acid. The plates were allowed to equilibrate for 30 min at 4° C., then washed with ice cold 25% TCA. Scintillation cocktail was added to the plates, and the radioactivity was determined using Wallac MicroBeta 1450 PLUS scintillation counter. The IC50 values were calculated by fitting the data to the sigmoidal dose-response (variable slope) equation in GraphPad Prism.
# [5] = target: T4, trkA (NIH3T3 cells transfected with trkA) (Homo sapiens, UniProt P04629); assay: Inhibition of NGF-stimulated trk phosphorylation in a whole cell preparation; type: cell-based; conditions: NGF 10 ng/ml
# T4 construct: expressed in transfected cells; host or cells: NIH3T3
# Protocol: NIH3T3 cells transfected with trkA were grown in 100 mm dishes. Subconfluent cells were serum-starved by replacing media with serum-free 0.05% BSA-DMEM containing compound (100 nM and 1 μM) or DMSO (added to controls) for one hour at 37° C. NGF (Harlan/Bioproducts for Science) was then added to the cells at a concentration of 10 ng/ml for 5 minutes. Cells were lysed in buffer containing detergent and protease inhibitors. Clarified cell lysates were normalized to protein using BCA method and immunoprecipitated with antII-trk antibody. Polyclonal antII-trk antibody was prepared against a peptide corresponding to the 14 amino acids at the carboxy terminus of trk (Martin-Zanca et al., Mol. Cell. Biol. 9: 24-33, 1989). The immune complexes were collected on Protein A Sepharose beads (Sigma Chem. Co., St. Lois, Mo.), separated by SDS polyacrylamide gel electrophoresis (SDS-PAGE), and transferred to a polyvinylidene difluoride (PVDF) membrane. The membrane was immunoblotted with antII-phosphotyrosine antibody (UBI), followed by incubation with horseradish peroxidase coupled goat antII-mouse IgG (Bio-Rad Laboratories, Hercules, Calif.). Phosphorylated proteins were visualized using ECL (Arnersham Life Science, Inc., Arlington Heights, Ill.). The area of the trk protein band was measured and compared to NGF-stimulated control. The inhibition scoring system used, based on percent decrease in trk protein band, was as follows: 0=no decrease; 1=1-25%; 2=26-49%; 3=50-75%; 4=76-100%.
# [6] = system: ChAT activity in dissociated rat embryonic spinal cord culture; assay: Enhancement of spinal cord ChAT activity; type: cell-based
# Source text: As discussed above, CHAT is a specific biochemical marker for functional cholinergic neurons. Cholinergic neurons represent a major cholinergic input into the hippocampal formation, olfactory nucleus, interpeduncular nucleus, cortex, amygdala, and parts of the thalamus. In the spinal cord, the motor neurons are cholinergic neurons which contain CHAT (Phelps et al., J. Comp. Neurol. 273:459-472 (1988)). ChAT activity has been used to study the effects of neurotrophins (e.g., NGF or NT-3) on the survival and/or function of cholinergic neurons. The ChAT assay also serves as an indication of the regulation of ChAT levels within cholinergic neurons.
# For example, in these assays, a compound was directly added to a dissociated spinal cord culture. Compounds which increased ChAT activity at least 120% of the control activity were considered active.
# Methods: Fetal rat spinal cord cells were dissociated, and experiments were performed as described (Smith et al., J. Cell Biology 101:1608-1621 (1985); Glicksman et al., J. Neurochem. 61:210-221 (1993)). […] ChAT activity was measured after 2 days in vitro using a modification of the Fonnum procedure (Fonnum, J. Neurochem. 24:407-409 (1975)) according to McManaman et al. and Glicksman et al. (McManamnan et al., Developmental Biology 125:311-320 (1988); Glicksman et al., J. Neurochem., supra).
# T2 sequence (P35968 834-1162 limits assumed): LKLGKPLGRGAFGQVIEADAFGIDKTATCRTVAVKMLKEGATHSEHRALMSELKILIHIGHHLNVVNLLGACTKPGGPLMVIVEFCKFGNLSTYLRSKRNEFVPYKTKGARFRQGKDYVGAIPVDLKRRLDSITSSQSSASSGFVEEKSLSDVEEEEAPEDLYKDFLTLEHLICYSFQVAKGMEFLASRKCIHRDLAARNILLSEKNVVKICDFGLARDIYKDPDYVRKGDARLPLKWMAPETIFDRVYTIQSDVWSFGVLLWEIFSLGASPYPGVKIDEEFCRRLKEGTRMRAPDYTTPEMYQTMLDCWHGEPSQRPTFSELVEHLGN
# T1 sequence (P09619 600-962 limits assumed): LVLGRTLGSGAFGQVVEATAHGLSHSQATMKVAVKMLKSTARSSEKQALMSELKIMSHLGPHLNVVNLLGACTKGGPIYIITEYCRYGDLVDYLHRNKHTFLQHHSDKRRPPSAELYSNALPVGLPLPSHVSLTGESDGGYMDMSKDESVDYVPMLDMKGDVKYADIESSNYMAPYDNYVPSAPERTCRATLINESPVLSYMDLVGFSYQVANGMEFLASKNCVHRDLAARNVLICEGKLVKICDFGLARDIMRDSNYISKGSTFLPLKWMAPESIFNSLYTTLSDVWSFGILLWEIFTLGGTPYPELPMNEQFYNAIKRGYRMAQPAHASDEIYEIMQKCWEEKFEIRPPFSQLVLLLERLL
# T3 sequence (P04629 440-796 limits assumed): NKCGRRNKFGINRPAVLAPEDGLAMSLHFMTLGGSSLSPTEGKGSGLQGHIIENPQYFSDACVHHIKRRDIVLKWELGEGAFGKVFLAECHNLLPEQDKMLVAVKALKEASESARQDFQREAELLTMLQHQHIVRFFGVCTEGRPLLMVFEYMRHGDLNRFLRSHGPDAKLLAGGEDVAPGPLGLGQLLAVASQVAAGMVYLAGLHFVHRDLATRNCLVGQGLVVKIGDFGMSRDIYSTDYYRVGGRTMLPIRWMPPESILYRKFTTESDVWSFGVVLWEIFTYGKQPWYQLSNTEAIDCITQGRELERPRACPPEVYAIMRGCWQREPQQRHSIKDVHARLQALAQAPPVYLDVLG
# T4 sequence (P04629 33-796, species assumed): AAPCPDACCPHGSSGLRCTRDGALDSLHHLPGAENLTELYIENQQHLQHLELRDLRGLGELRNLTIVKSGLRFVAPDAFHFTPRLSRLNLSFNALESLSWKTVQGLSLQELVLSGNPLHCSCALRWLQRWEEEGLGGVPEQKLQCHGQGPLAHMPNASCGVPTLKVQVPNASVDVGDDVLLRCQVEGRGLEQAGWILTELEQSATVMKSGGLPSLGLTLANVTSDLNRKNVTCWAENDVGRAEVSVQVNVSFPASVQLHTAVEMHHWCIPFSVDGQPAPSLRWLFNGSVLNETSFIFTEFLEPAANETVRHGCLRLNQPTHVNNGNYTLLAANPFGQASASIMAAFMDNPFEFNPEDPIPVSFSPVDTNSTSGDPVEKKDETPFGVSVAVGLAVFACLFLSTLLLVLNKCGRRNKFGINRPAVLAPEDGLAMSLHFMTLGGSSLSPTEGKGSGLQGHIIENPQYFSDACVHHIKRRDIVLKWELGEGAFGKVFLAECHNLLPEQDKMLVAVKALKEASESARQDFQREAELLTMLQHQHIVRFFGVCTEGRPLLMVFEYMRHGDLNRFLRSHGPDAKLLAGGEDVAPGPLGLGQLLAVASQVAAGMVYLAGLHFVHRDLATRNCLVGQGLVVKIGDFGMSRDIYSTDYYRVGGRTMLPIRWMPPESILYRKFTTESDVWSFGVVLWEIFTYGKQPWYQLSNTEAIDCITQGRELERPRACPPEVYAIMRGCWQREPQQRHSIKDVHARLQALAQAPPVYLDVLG
Structure (SMILES),inhibition at 0.3 µM ([1]; 300 nM compound) [%],inhibition at 0.3 µM ([2]; 300 nM compound) [%],IC50 [3] [µM],also measured
CC1C=CC(C(O)C2c3ccccc3-c3c4c(c5c([nH]c6ccccc65)c32)CNC4=O)n2c(=O)n(-c3ccccc3)c(=O)n21 (stereo not shown) [II-64],29,20,0.399,
O=C1NCc2c1c1c(c3[nH]c4ccccc4c23)C(C2(O)CCCC2CN2CCOCC2)c2ccccc2-1 (mixture of isomers) [II-17],,,,PDGFRβ % inh @ 300 nM (values in parentheses) ([1]; 300 nM compound): (47) %; VEGF receptor kinase activity % Inh. @ 300 nM (values in parentheses) ([2]; 300 nM compound): (33) %; trkA kinase activity % Inh. @ 300 nM (values in parentheses) [3]: (33) %
O=C1NCc2c1c1c(c3c2c2ccccc2n3CC2CC2)C(CC2CC2)c2ccccc2-1 (stereo not shown) [II-65],5,26,0.32,"Protein kinase C activity, values in parentheses ([4]; concentration not given): (20)"
CC(C)(C)C(=O)OCC1(C2c3ccccc3-c3c4c(c5c([nH]c6ccccc65)c32)CNC4=O)CCCO1 (mixture of isomers) [II-20],,,,Spinal Cord ChAT (% control) Activity at 30 nM ([6]; 30 nM compound): 132 % control; Spinal Cord ChAT (% control) Maximal Activity ([6]; @ 500 nM): 191 @ 500 nM % control; trkA kinase activity % Inh. @ 300 nM (values in parentheses) [3]: (39) %

# The next lines start with results.
inhibition at 0.3 µM ([1]; 300 nM compound) [%],inhibition at 0.3 µM ([2]; 300 nM compound) [%],IC50 [3] [µM],Structure (SMILES),also measured
,,0.019,O=C1NCc2c1c1c(c3[nH]c4ccccc4c23)C(C2CCC(O)O2)c2ccccc2-1 (racemic) [II-23],IC50 [4]: 0.644 µM; IC50 ([1]; 20 μM ATP): 0.648 µM; IC50 ([2]; 40 μM ATP): 0.079 µM; Cell Score @ 100 nM (percent decrease in trk protein band) ([5]; 100 nM compound): 2 (2=26-49%); Cell Score @ 1 uM (percent decrease in trk protein band) ([5]; 1 uM compound): 4 (4=76-100%)
0,31,0.245,CCNC(=O)OCC1(C2c3ccccc3-c3c4c(c5c6ccccc6n(C(=O)NCC)c5c32)CNC4=O)CCCO1 (stereo not shown) [II-68],
18,49,0.024,CCNC(=O)n1c2ccccc2c2c3c(c4c(c21)C(C1(CO)CCCO1)c1ccccc1-4)C(=O)NC3 (stereo not shown) [II-69],
